Experimental data published in patent EP0199840B1, “Use of a diamine for the preparation of a softener for erythrocytes” (Barnikol, Wolfgang, Prof. Dr.Dr., priority 1985, dated 1986).

Test system: Erythrozyten
Assay: Erythrocyte filtration test: specific filtration time (FZsp) of an 8% suspension of purified erythrocytes through 5 µm polycarbonate (Nuclepore) membrane filters
Format: cell-based, gesunden Probanden
Conditions: for Wirkung auf FZsp compared with Ausführungsbeispiel 1 (result in words): carried out as in Ausführungsbeispiel 1 (0 to 100 mmol/I; 1,5 Stunden; pH=7,4; 22°C; there FZsp reduced to 30% at 50 mmol/I)
Excerpt: Es wurde nun gefunden, daß es, um die Erythrozyten-weichmachende Wirkung einer Substanz mit Hilfe eines Filtrationstests festzustellen, unerlässlich ist, die Erythrozyten quantitativ von den andern Blutzellen abzutrennen, weil auch sehr geringe Zellverunreinigungen den Test übermä-βig stark stören Daher wurde ein Testverfahren einschließlich eines Reinigungsverfahrens mit Hilfe der Dichtezentrifugation in synthetischem Polysaccharid (Ficoll® 400, Deutsche Pharmazia, Freiburg, Bundesrepublik Deutschland) erarbeitet; als Literaturstelle sei hingewiesen auf: Barnikol et al., Funkt, Biol. Med. 1 (1982), 242-244.
Im Prinzip wird hierbei die sogenannte spezifische Filtrierzeit (FZsp) einer 8%igen Erythrozytensuspension an 5 um Polycarbonat (Nuclepore-^@) Membran-filtern bestimmt. Das Meßverfahren wurde insofern gegenüber der ursprünglichen Vorschrift modifiziert, als nunmehr lediglich die Anfangsgeschwindigkeit gemessen wird, also je nach Dauer variable Tropfenzahlen vermessen werden, sowie der Zeitbedarf für eine bestimmte Tropfenzahl, nämlich 10, bereichnet wurde.
Es gilt die Formel [formula] wobei: • t=Filtrierzeit für 10 Tropfen der Suspension • to=Filtrierzeit für 10 Tropfen des Suspensionsmittels • FZsp ist ein Maß für die Steifigkeit.
Erthrozyten von mehreren gesunden Probanden werden wie oben angegeben (Barnikol et al., 1982) präpariert und eine 8 Vol.-%ige Zellsuspension hergestellt unter Zugabe von Glukose (100 mg/dl). Den Suspensionen werden steigende Mengen von DMAEA von 0 bis 100 mmol/I zugesetzt. Die Proben werden 1,5 Stunden unter langsamen Schwenken belassen bei pH=7,4 und 22°C und danach FZsp gemessen: Bei 50 mmol/I wird FZsp auf 30% des Ausgangswertes verringert.

Row | SMILES | Wirkung auf FZsp compared with Ausführungsbeispiel 1 (result in words) | other results
1 | CN(C)CCN [DMAEA, Dimethylaminoethylamin] |  | activity at 50000 µM (Homo sapiens, Erythrocyte, 1.5 h, pH 7.4, 50 mmol/I, 8 Vol.-%ige Zellsuspension with Glukose (100 mg/dl), 1,5 Stunden, pH=7,4, 22°C, read-out: FZsp (spezifische Filtrierzeit), % des Ausgangswertes): 30%
2 | CC(=O)CCCCn1c(=O)c2c(ncn2C)n(C)c1=O [Pentoxifyllin, 3,7-Dimethyl-1-(5-oxohexyl)-xanthin, reference compound] |  | Wirkung auf FZsp (result in words) (0,1 mmol/1 to 15 mmol/I, 22°C, pH=7,40, FZsp not significantly reduced): unwirksam
3 | CCN(CC)CCN(CC)CC [TEEDA, Tetraethylethylendiamin] | gleich Wirkung | 
4 | CN(C)CCN(C)C [TMEDA, Tetramethylethylendiamin] | gleiche Wirkung | 
